As usually defined, the LD50 is the dose at which mortality reaches 50%.

Series [1] is described as follows: Acute toxicity, single i.p. injection. The settings on record: CD-1, mouse, in vivo, ip, mice. On the procedure: Toxicological experiments were performed using a single i.p. injection of the tested compounds in CD-1 mice weighing 20–25 g. Stock solutions of the tested compounds were diluted in ethanol or water. The final ethanol dose was 100 mg/kg. Nine different doses of the tested compounds were used with 12 mice per dose. Animals were observed 7 days after injection, and symptoms of toxicity were recorded.

Series [2] has as its system scopolamine-induced amnesia in mice. The experiment in a line: Novel object recognition test, scopolamine-induced amnesia. Type of series: in vivo. As to conditions: scopolamine 1.5 mg/kg. As to the method: This study explored the ability of bisuracil 3c to counteract scopolamine-induced amnesia in mice, utilising behavioural assessments conducted through the novel object recognition test. […] The induction of amnesia was facilitated by the i.p. injection of scopolamine (1.5 mg/kg) 50 min prior to testing. […]. An equivalent amount of the vehicle was administered to a control group of mice.
The experiments were carried out on CD1 mice of both sexes weighing 24–25 g. The novel object recognition test was conducted over a period of three days. On the first day, the mice were placed individually into the square testing arena with black walls (50 cm in length, 50 cm in width, 38 cm in height) for 5 min without any objects. On the second day, two identical objects were placed in the central part of the arena, and the mice were allowed to explore the objects for 10 min. Test compounds were administered prior to testing on the second day. The induction of amnesia was facilitated by i.p. injection of scopolamine (1.5 mg/kg) 50 min prior to testing. Tested compounds were administered i.p. 30 min prior to testing. The control group of animals was administered with an equivalent amount of vehicle. On the third day, the mice were presented with a familiar and a novel object for 10 min. The time of exploration of each object by the mice was recorded using a digital camera. After each test, the arena was cleaned with a solution of 70% ethanol. At the end of the test, the preference index (exploration of novel object/total exploration time × 100) was calculated.

In a further series the target is T1, human AChE (Homo sapiens, UniProt P22303).
T1 construct: purchased Sigma-Aldrich
The experiment in a line: Inhibition constants (Dixon and Cornish–Bowden plots), AChE. Type of series: biochemical. As to the method: (§1) Experiments were performed using four different concentrations of ATCh as a substrate for AChE, and with BuTCh as a substrate for BuChE. According to the analysis of Dixon and Cornish–Bowden plots for bisuracil 2b, AChE and BuChE inhibition is of a mixed type characterised both by competitive inhibition (Kci) and uncompetitive inhibition (Kui) components. For AChE, Kci was determined to be 55.7 ± 8.1 pM while Kui = 156 ± 18 pM (Figure 3A,B), and Kci = 0.13 ± 0.02 mM while Kui = 0.7 ± 0.06 mM for BuChE (Figure 3C,D). Inhibition of AChE and BuChE by bisuracil 3c was of a mixed type. For the AChE constant, Kci was 0.7 ± 0.04 nM while Kui 4.45 ± 1.76 nM (Figure 4A,B); for the BuChE constant, Kci = 0.04 ± 0.007 мM while Kui = 0.68 ± 0.08 мM (Figure 4C,D).
(§2) A UV-1800 Shimadzu (Shimadzu Co., Kyoto, Japan) spectrophotometer was utilised to conduct the measurements. The final enzyme concentration in the assays was in the picomolar range. In order to ascertain the levels of spontaneous hydrolysis of the enzyme and substrate in the absence of an inhibitor, controls were performed for each substrate concentration. The change in absorption was then recorded over a period of three minutes. The inhibition constants were determined from a Dixon plot and Cornish–Bowden transformation.

For the next series, the target named is T2, human BuChE (Homo sapiens, UniProt P06276).
T2 construct: butyrylcholiesterase from human plasma; purchased Sigma-Aldrich; host or cells: human plasma
The experiment in a line: Inhibition constants (Dixon and Cornish–Bowden plots), BuChE. Type of series: biochemical. On the procedure: as §1, §2

Read-outs that look alike come from different tables or passages of the source.

T2 sequence (P06276 29-602): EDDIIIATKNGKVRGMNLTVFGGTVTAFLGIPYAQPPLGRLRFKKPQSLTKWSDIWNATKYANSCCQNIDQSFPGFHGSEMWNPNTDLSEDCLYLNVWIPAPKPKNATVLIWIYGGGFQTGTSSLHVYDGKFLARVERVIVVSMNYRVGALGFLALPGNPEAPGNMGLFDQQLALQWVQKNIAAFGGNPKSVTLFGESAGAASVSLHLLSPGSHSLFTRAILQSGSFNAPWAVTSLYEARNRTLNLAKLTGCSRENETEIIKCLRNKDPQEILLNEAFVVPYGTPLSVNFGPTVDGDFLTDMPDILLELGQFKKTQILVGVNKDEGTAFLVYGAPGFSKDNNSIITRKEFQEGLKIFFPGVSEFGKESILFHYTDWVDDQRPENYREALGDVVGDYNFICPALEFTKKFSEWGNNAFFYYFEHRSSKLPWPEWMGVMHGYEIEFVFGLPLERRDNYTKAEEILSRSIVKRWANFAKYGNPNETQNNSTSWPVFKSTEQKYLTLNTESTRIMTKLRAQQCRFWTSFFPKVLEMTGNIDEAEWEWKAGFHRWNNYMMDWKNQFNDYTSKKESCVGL
T1 sequence (P22303 32-614): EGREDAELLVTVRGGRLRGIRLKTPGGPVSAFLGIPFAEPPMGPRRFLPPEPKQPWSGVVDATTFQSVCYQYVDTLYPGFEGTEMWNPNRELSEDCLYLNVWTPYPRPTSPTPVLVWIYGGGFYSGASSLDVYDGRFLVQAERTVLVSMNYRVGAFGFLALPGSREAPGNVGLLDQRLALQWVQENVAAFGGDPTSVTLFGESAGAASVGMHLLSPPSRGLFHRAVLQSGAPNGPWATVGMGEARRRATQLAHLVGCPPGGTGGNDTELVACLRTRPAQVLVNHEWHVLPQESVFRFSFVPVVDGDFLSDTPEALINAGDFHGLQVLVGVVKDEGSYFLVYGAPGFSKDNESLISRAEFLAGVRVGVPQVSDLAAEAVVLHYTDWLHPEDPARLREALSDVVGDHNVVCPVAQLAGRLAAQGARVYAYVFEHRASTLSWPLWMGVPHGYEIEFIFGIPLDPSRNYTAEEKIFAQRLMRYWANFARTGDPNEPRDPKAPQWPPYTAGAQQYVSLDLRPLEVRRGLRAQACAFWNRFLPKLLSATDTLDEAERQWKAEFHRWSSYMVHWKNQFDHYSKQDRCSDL

Consider `CCN(CCCCCn1c(=O)ccn(CCCCCn2c(C)cc(=O)n(C)c2=O)c1=O)Cc1ccccc1C#N` [3c], for which the LD50 at 7 days is 22.8 mg/kg in series [1] (observed 7 days, read-out: LD50 (median lethal dose)) and 15 to 28.7 mg/kg in series [1] (read-out: LD50 95% confidence limits). Also, in series [2] (3c 2 mg/kg i.p. 30 min prior to testing), the “effect on the preference index” value is reported as “no significant effect”. For the same molecule, in series [2] (3c 5 mg/kg i.p. 30 min prior to testing, p = 0.01), the “increase in the preference for the novel object compared to the scopolamine-treated group” value is reported as 30.5%. Further, at human AChE (ATCh as substrate), the “Kui (uncompetitive inhibition constant), AChE” value came out at 4.45 ± 1.76 nM. Besides, the Ki amounted to 0.0007 ± 4e-05 µM at human AChE (ATCh as substrate, read-out: Kci (competitive inhibition constant), AChE) and 40 ± 7 µM on human BuChE (BuTCh as substrate, read-out: Kci (competitive inhibition constant), BuChE). The “type of AChE inhibition” value at human AChE (Dixon and Cornish–Bowden plots) is “mixed type”. Besides, the “Kui (uncompetitive inhibition constant), BuChE” value at human BuChE (BuTCh as substrate) was 0.68 ± 0.08 мM. Besides, the “type of BuChE inhibition” value on human BuChE (Dixon and Cornish–Bowden plots) was “mixed type”.

Source of the values: paper PMC12027946, “Ionic and Non-Ionic Counterparts Based on Bis(Uracilyl)Alkane Moiety with Highest Selectivity Towards Acetylcholinesterase for Protection Against Organophosphate Poisoning and Treating Alzheimer’s Disease” (International Journal of Molecular Sciences, 2025).
